Laboratory results published in ChEMBL document CHEMBL1201862, “PubChem BioAssay data set” (2004).
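How tested: cells in 96-well plates exposed to compound for 48 hours at five concentrations. Abbreviation: GI50, concentration required for 50% inhibition of growth.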 The source made the active and inactive calls. Cut-off read from the data, not from the text of the source: active = GI50 up to about 1.1 µM and inactive = higher. *1 amine or outer side, *2 acyl side, *3 side chain or, on linkers, in order; H or OH if unused. Where a SMILES comes first, the peptide text is derived from it. [ ]: non-standard residue; d: D form. The star is where a group is joined. ξ: configuration not given here. X43 = CCC(=O)CC(O)CC(C)CC(N[*:1])C(=O)[*:2]; ξLeu(3ξ-OH) = CC(C)C(O)C(N)C(=O)O; ξPro(4ξ-Me) = CC1CNC(C(=O)O)C1; X42 = CCC(C)/C=C/C(=O)*; Aib = CC(C)(N)C(=O)O; X44 = CC(CN(C)C)N*; βAla = NCCC(=O)O

Tests used:
Test in all cases: NCI-60 cell line screen, 48 h
[1] = test system: A498
[2] = test system: A549
[3] = test system: HCT-15
[4] = test system: HT-29
[5] = test system: M19-MEL
[6] = test system: MOLT-4
[7] = test system: NCI-H226
[8] = test system: NCI-H23
[9] = test system: NCI-H522
[10] = test system: SF-268
[11] = test system: SF-295
[12] = test system: SK-MEL-5
[13] = test system: SNB-75
[14] = test system: U-251
[15] = test system: HL-60
[16] = test system: RPMI-8226
[17] = test system: SR
[18] = test system: MDA-MB-231
[19] = test system: MDA-MB-435
[20] = test system: PC-3

SMILES	GI50 [1]	GI50 [2]	GI50 [3]	GI50 [4]	GI50 [5]	GI50 [6]	GI50 [7]	GI50 [8]	GI50 [9]	GI50 [10]	GI50 [11]	GI50 [12]	GI50 [13]	GI50 [14]	GI50 [15]	GI50 [16]	GI50 [17]	GI50 [18]	GI50 [19]	GI50 [20]
CCOC(=O)CC1=Nc2ccccc2SC1	> 100 µM (inactive)	> 100 µM (inactive)	> 100 µM	> 100 µM (inactive)	> 100 µM (inactive)	> 100 µM (inactive)	> 100 µM (inactive)	> 100 µM (inactive)	> 100 µM (inactive)	0.031 µM (active)	> 100 µM (inactive)	> 100 µM (inactive)	> 100 µM (inactive)	> 100 µM (inactive)						
C/C(CCn1[nH]c(=O)ccc1=O)=N\O	> 100 µM (inactive)	> 100 µM (inactive)	> 100 µM	> 100 µM (inactive)	> 100 µM (inactive)	> 100 µM (inactive)	> 100 µM (inactive)	> 100 µM (inactive)		> 100 µM (inactive)	> 100 µM (inactive)	> 100 µM (inactive)	> 100 µM (inactive)		> 100 µM (inactive)	> 100 µM (inactive)	> 100 µM (inactive)			
COc1c(C)cc2c(c1O)C1C3[C@H]4SC[C@@]5(NCCC6=C5NC5C=CC=CC65)C(=O)OCC(c5c6c(c(C)c(OC(C)=O)c54)OCO6)N3[C@@H](O)C(C2)N1C (some centres not stated)	< 0.01 µM (active)	< 0.01 µM (active)	< 0.01 µM	< 0.01 µM (active)	< 0.01 µM (active)	< 0.01 µM (active)	0.0112 µM (active)	< 0.01 µM (active)		< 0.01 µM (active)	< 0.01 µM (active)	< 0.01 µM (active)	< 0.01 µM (active)	< 0.01 µM (active)	< 0.01 µM (active)	< 0.01 µM (active)	< 0.01 µM (active)			
COc1cccc2cc(C)c(C(=O)c3ccccc3)nc12		> 100 µM (inactive)	> 100 µM		> 100 µM (inactive)	> 100 µM (inactive)	> 100 µM (inactive)	> 100 µM (inactive)	> 100 µM (inactive)	> 100 µM (inactive)	> 100 µM (inactive)	> 100 µM (inactive)	91.2 µM (inactive)	> 100 µM (inactive)		> 100 µM (inactive)				
Cc1cc(C)nc(NS(=O)(=O)c2ccc(Nc3c4ccccc4nc4c(C(=O)NCCN(C)C)ccc(Cl)c34)cc2)n1		0.942 µM (active)	2.78 µM	0.659 µM (active)	2.05 µM (inactive)	0.255 µM (active)	0.7 µM (active)	2.43 µM (inactive)	1.24 µM (inactive)	1.51 µM (inactive)	1.45 µM (inactive)	4.38 µM (inactive)	2.59 µM (inactive)	1.66 µM (inactive)	1.44 µM (inactive)		0.259 µM (active)			
COCC1C(=O)c2cc3c(cc2C12C=CC1(C=C2)OCCO1)OCO3 (configuration not stated)		15.4 µM (inactive)	1.6 µM	3.94 µM (inactive)	2.93 µM (inactive)	1.65 µM (inactive)	10.9 µM (inactive)	12.5 µM (inactive)	1.63 µM (inactive)	3.86 µM (inactive)	14.4 µM (inactive)	> 10 µM (inactive)	14.9 µM (inactive)	3.67 µM (inactive)	2.09 µM (inactive)	1.43 µM (inactive)	1.82 µM (inactive)			
C[C@@H](NC1CCC[C@@H]1O)c1ccccc1 (some centres not stated)		> 100 µM (inactive)	> 100 µM	> 100 µM (inactive)	> 100 µM (inactive)	> 100 µM (inactive)	> 100 µM (inactive)				> 100 µM (inactive)	> 100 µM (inactive)	> 100 µM (inactive)	> 100 µM (inactive)	> 100 µM (inactive)	> 100 µM (inactive)				
NC1=NS(=O)(=O)Nc2nc(-c3ccc([N+](=O)[O-])cc3)[nH]c21		> 100 µM (inactive)	> 100 µM	> 100 µM (inactive)	> 100 µM (inactive)	> 100 µM (inactive)		> 100 µM (inactive)	> 100 µM (inactive)	> 100 µM (inactive)	> 100 µM (inactive)	> 100 µM (inactive)	> 100 µM (inactive)	> 100 µM (inactive)	> 100 µM (inactive)	> 100 µM (inactive)	> 100 µM (inactive)			
O=C(NO)C12C3C4C1C1C2C3C41C(=O)NO (configuration not stated)	> 100 µM (inactive)	> 100 µM (inactive)	> 100 µM	> 100 µM (inactive)	> 100 µM (inactive)	> 100 µM (inactive)	> 100 µM (inactive)		> 100 µM (inactive)	> 100 µM (inactive)	> 100 µM (inactive)	> 100 µM (inactive)	> 100 µM (inactive)	> 100 µM (inactive)	> 100 µM (inactive)	> 100 µM (inactive)				
CCCCCCCCCC(=O)NC(Cc1ccc(O)cc1)C(=O)NCCCNCCCCNCCCNC(=O)[C@@H](N)CCCN=C(N)N (some centres not stated)		76 µM (inactive)	86.7 µM	> 100 µM (inactive)	50.2 µM (inactive)	> 100 µM (inactive)	61.2 µM (inactive)	57.7 µM (inactive)	28.8 µM (inactive)	82.2 µM (inactive)	29 µM (inactive)	12.8 µM (inactive)		> 10 µM (inactive)	16.2 µM (inactive)	64.9 µM (inactive)	73.3 µM (inactive)			
COC(=O)/C(=N\Nc1nc(S)nn1N)C(C#N)c1ccc(Cl)cc1 (configuration not stated)	> 100 µM (inactive)	> 100 µM (inactive)	> 100 µM	> 100 µM (inactive)	> 100 µM (inactive)		> 100 µM (inactive)	> 100 µM (inactive)		> 100 µM (inactive)	> 100 µM (inactive)		> 100 µM (inactive)	> 100 µM (inactive)		> 100 µM (inactive)				
C[C@]12CC/C(=N\O)C=C1CC[C@@H]1C2CC[C@@]2(C)C1CC[C@@H]2OC1CCCCO1 (some centres not stated)	> 100 µM (inactive)	22.6 µM (inactive)	20.1 µM	14.3 µM (inactive)	19.1 µM (inactive)	12.4 µM (inactive)		17.3 µM (inactive)	17.4 µM (inactive)	23.3 µM (inactive)	18.5 µM (inactive)	32.1 µM (inactive)	18.9 µM (inactive)	17.9 µM (inactive)		15.7 µM (inactive)				
COCN1COCN(C)C1=O	> 100 µM (inactive)	> 100 µM (inactive)	> 100 µM	> 100 µM (inactive)	> 100 µM (inactive)		> 100 µM (inactive)	> 100 µM (inactive)		> 100 µM (inactive)	> 100 µM (inactive)	> 100 µM (inactive)	> 100 µM (inactive)	> 100 µM (inactive)		> 100 µM (inactive)				
COc1ccc(NC(=O)CC/C(CC(=O)c2ccco2)=N/NC(=O)C(N)=O)cc1	76.4 µM (inactive)	> 100 µM (inactive)	> 100 µM	> 100 µM (inactive)	74.6 µM (inactive)	46.9 µM (inactive)	> 100 µM (inactive)	38.3 µM (inactive)	53 µM (inactive)	68.9 µM (inactive)	> 100 µM (inactive)	27.4 µM (inactive)	97.5 µM (inactive)		36 µM (inactive)	33.8 µM (inactive)				
CSc1c([S+](C)[O-])[nH]c2cc(Br)cc(Br)c12 (configuration not stated)	22.1 µM (inactive)	24 µM (inactive)	22.8 µM	26.9 µM (inactive)	29.2 µM (inactive)	18.1 µM (inactive)	27.4 µM (inactive)	19.3 µM (inactive)	23.3 µM (inactive)		17.1 µM (inactive)	18.3 µM (inactive)	17.3 µM (inactive)	0.0376 µM (active)	21.3 µM (inactive)	18.8 µM (inactive)				
CCC(=O)CC(O)CC(C)CC(NC(=O)C1CC(C)CN1C(=O)/C=C/C(C)CC)C(=O)NC(C(=O)NC(C)(C)C(=O)NC(CC(C)C)C(=O)NC(CC(C)C)C(=O)NC(C)(C)C(=O)NC(C)(C)C(=O)NCCC(=O)NC(C)CN(C)C)C(O)C(C)C (configuration not stated) (X42-[ξPro(4ξ-Me)][X43][ξLeu(3ξ-OH)][Aib]LL[Aib][Aib][βAla]-X44; configuration not given here)	0.495 µM (active)	< 0.005 µM (active)	5.4 µM	0.0728 µM (active)		0.00887 µM (active)	< 0.005 µM (active)	< 0.005 µM (active)	< 0.005 µM (active)	0.0526 µM (active)	0.0255 µM (active)	< 0.005 µM (active)	0.0165 µM (active)	< 0.005 µM (active)	0.00951 µM (active)	0.0218 µM (active)	0.028 µM (active)	0.133 µM (active)	0.0745 µM (active)	0.00632 µM (active)
O=C1/C(=C/c2ccccc2)CCc2ccc([N+](=O)[O-])cc21	> 78.7 µM (inactive)	> 100 µM (inactive)	39.7 µM	> 100 µM (inactive)		10.8 µM (inactive)	> 100 µM (inactive)	34.7 µM (inactive)	3.31 µM (inactive)	30.7 µM (inactive)	33 µM (inactive)	25.2 µM (inactive)	37.3 µM (inactive)	27.1 µM (inactive)	1.86 µM (inactive)	0.492 µM (active)	4.26 µM (inactive)	69.3 µM (inactive)	40.8 µM (inactive)	44.2 µM (inactive)
CCOC(=O)Nc1ccc(S(=O)(=O)OC)cc1.CCOC(=O)Nc1ccc(S(=O)(=O)OC)cc1.Nc1ncnc2c1ncn2C1OC(CO)C(O)C1O (configuration not stated)	> 100 µM (inactive)	34.3 µM (inactive)	34.2 µM	26.3 µM (inactive)	21.9 µM (inactive)	> 100 µM (inactive)	> 100 µM (inactive)	> 100 µM (inactive)		> 100 µM (inactive)	> 100 µM (inactive)	> 100 µM (inactive)	> 100 µM (inactive)		21.8 µM (inactive)	21.6 µM (inactive)				
